Reference: ChEMBL document CHEMBL1132532, “Correlation of anti-HIV activity with structure: use of electrostatic potential and conformational analysis” (Bioorg Med Chem Lett, 1999)

Assays:
Format in all cases: functional, cell-based
Settings in all cases: Homo sapiens
[1] = system: ATH-8 cell line; experiment: The compound was tested for anti HIV-activity (active) against ATH8 cell line
[2] = system: MT4; experiment: The compound was tested for anti HIV-activity (active) against MT-4 cell line
[3] = system: PBMC; experiment: The compound was tested for anti HIV-activity (active) against PBM cell line
[4] = system: MT2; experiment: The compound was tested for anti HIV-activity (active) against MT-2 cell line

Row | IC50 [1] | SMILES | IC50 [2] | further results
1 | 15 µM | Nc1ncnc2c1ncn2[C@H]1CO[C@@H](CO)C1 | 43 µM | –
2 | – | Nc1ncnc2c1ncn2[C@@H]1C[C@H](CO)CO1 | > 200 µM | –
3 | 0.4 µM | Cc1cn([C@H]2C[C@H](N=[N+]=[N-])[C@@H](CO)O2)c(=O)[nH]c1=O [ZIDOVUDINE] | – | IC50 [3]: 0.004 µM
4 | – | Nc1ncnc2c1ncn2[C@@H]1CO[C@H](CO)C1 | – | IC50 [3]: 0.67 µM
5 | – | Nc1ncnc2c1ncn2[C@H]1C[C@@H](CO)CO1 | > 200 µM | –
6 | 0.19 µM | Nc1nc(O)c2ncn(C3C=CC(CO)O3)c2n1 (stereo not drawn) | – | IC50 [4]: 0.19 µM
7 | – | Nc1ncnc2c1ncn2[C@@H]1O[C@H](CO)[C@H]1CO | 4 µM | –
8 | – | Cc1cn(C2COC(CO)C2)c(=O)[nH]c1=O (stereo not drawn) | > 200 µM | –
9 | – | Nc1ccn(C2COC(CO)C2)c(=O)n1 (stereo not drawn) | > 200 µM | –
10 | – | Nc1nc(O)c2ncn(C3COC(CO)C3)c2n1 (stereo not drawn) | > 200 µM | –
